The target of the assay is T1, EfAvs5 (Kosakonia oryzae, UniProt A0AA94GZI5).
T1 sequence (A0AA94GZI5 1-849): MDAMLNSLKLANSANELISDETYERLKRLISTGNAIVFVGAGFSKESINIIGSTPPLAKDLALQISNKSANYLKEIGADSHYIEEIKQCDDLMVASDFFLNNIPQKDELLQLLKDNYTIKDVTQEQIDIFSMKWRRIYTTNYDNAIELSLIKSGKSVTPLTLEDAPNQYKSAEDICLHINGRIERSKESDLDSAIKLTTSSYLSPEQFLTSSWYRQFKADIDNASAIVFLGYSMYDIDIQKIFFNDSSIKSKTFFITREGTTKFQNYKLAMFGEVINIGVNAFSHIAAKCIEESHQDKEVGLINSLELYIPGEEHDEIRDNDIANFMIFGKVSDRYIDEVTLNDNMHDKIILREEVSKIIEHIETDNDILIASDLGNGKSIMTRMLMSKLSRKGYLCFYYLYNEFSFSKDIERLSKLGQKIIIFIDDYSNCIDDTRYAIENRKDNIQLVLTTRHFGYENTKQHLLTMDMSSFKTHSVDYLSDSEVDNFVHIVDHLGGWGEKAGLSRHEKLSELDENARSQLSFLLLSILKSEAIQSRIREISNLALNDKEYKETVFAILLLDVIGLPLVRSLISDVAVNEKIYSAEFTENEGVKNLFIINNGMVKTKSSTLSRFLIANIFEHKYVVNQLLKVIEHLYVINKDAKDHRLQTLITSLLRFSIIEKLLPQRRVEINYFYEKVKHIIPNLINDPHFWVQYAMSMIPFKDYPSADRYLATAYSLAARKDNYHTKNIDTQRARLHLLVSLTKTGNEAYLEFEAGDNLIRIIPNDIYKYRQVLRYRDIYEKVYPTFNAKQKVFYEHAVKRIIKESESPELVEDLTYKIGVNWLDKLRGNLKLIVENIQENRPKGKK
The assay can be described thus: biochemical.

The Ki is a measure of affinity in units of concentration, obtained from inhibition or displacement. The low end stands for higher affinity, the high end for lower affinity. In the case of `Nc1ncnc2c1ncn2[C@@H]1O[C@H](COP(=O)(O)OP(=O)(O)OP(=O)(O)O)[C@@H](O)[C@H]1O` [ATP], the affinity corresponds to a Ki of 1740 ± 98 µM.

Source of the values: article PMC11897194 (Nature Communications, 2025).
